# Test results taken from US20020169111A1, “Reversal of multidrug resistance in human colon carcinoma cells” (American Cyanamid Comany, priority 1998, published 2002).
# Where “and” joins values, the source holds several entries; their conditions need not be identical. Identical values can stand only once. Like-named read-outs stand apart in the source and are kept apart here.
# Columns and labels:
# 8226/MR4 cells = assay: Reversal of mitoxantrone resistance in myeloid cells; assay type: cell-based, human; conditions: selected for resistance to mitoxantrone
# S1-M1-3.2 cells [1] = conditions: for Per Cent Survival Alone: 3 days; for Difference Score: survival alone minus survival with 3.2 μM mitoxantrone
# Procedure, shortened: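 Cells grown in medium with 5% FBS received reversal agents at 0.1-80 μM (triplicate per dose), with or without the antitumor agent, plus reversal agent-only wells; survival by SRB assay. Difference Score = % survival with drug alone minus % survival with drug plus antitumor agent.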
# MCF-7/BCRP cells = assay: Dose modifying factor of FTC in BCRP-transfected cells; assay type: cell-based, human; conditions: MCF-7/BCRP
# Protocol: (§1) Cell survival was estimated after 3 days using the SRB assay, and EC50 values were determined from cytotoxicity curves.
# S1-B1-20 cells = assay: Reversal of resistance in P-gp expressing cells, alone or with 21 μM bisantrene; assay type: cell-based, human; parameters: Difference Score: unit not given here; conditions: for Per Cent Survival with 21 μM bisantrene / Per Cent Survival Alone / Difference Score: S1-B1-20 cells; for Difference Score: survival alone minus survival with 21 μM bisantrene
# Protocol: To determine the specificity of FTC for non P-gp multidrug resistance, FTC was tested on S1-B1-20 cells which were selected for resistance to bisantrene and which express high levels of P-gp (Table 9)(Zhang, et al, Oncol. Res. 6291-301 (1994)). […] The 21 μM concentration of bisantrene is not inhibitory to the growth of the cells. Values shown are mean ± standard deviation from triplicate test wells.
# HL-60 cells = assay: Dose modifying factor of FTC (SRB, EC50 ratio); assay type: cell-based; conditions: for Dose modifying factor: HL-60
# Protocol: (§2) Cell survival was estimated after 3 days using the SRB assay. Cell survival was determined by the SRB assay and EC50 values were determined from toxicity curves. The dose modifying factor (DMF) is the ratio of EC50 values obtained in the absence and presence of reversal agent. Maximum DMF values (shown in parentheses) is the ratio of EC50 values of resistant and sensitive cells in the absence of the reversal agent. This value is obtained when resistance is reversed completely, and is the equivalent of the relative resistance.
# S1-M1-3.2 cells [2] = assay: Dose modifying factor of FTC (SRB, EC50 ratio); assay type: cell-based, human; conditions: S1-M1 cells
# Protocol: as §2
# S1 cells = assay: Dose modifying factor of FTC (SRB, EC50 ratio); assay type: cell-based, human
# Protocol: as §2
# MCF-7 cells = assay: Dose modifying factor of FTC (SRB, EC50 ratio); assay type: cell-based, human; conditions: for Dose modifying factor (5 μM FTC): MCF-7 (untransfected, Table 11)
# Protocol: as §2
# (§3) In order to determine the utility of FTC as a reversal agent in other multidrug resistant cell lines, FTC was tested in two breast cancer cell lines which show a multidrug resistant phenotype with no overexpression of P-gp or MRP.
# as §1
# HL-60/AR cells = assay type: cell-based; conditions: for Dose modifying factor: HL-60/AR
# Protocol: as §2
# MCF 7/AdVp cells = assay type: cell-based, human; conditions: MCF 7/AdVp; 5 μM FTC with Paclitaxel
# Protocol: as §2, §3
# A549 = assay: Sensitization of unselected cells to mitoxantrone; assay type: cell-based; conditions: A549 non small cell lung carcinoma, not selected
smiles,measurement,setting,value
COc1ccc2c3c([nH]c2c1)[C@H](C=C(C)C)N1C(=O)[C@@H]2CCCN2C(=O)[C@@H]1C3 [Fumitremorgin C],reversal of resistance in 8226/MR4 cells (in words),8226/MR4 cells,reversed low level resistance
same,concentration giving 40% cell death (compound alone),S1-M1-3.2 cells [1]; S1-M1-3.2 cells,greater than 80 μM
same,toxicity alone (in words),"S1-M1-3.2 cells [1]; S1-M1-3.2 cells, dose range tested 0.1-80 μM",No toxicity
same,Per Cent Survival with 3.2 μM mitoxantrone,"S1-M1-3.2 cells [1]; S1-M1-3.2 cells, drug 0.1 μM",95 ± 4 Per Cent
same,Per Cent Survival Alone,"S1-M1-3.2 cells [1]; S1-M1-3.2 cells, drug 0.1 μM alone",105 ± 4 Per Cent
same,Difference Score,"S1-M1-3.2 cells [1]; S1-M1-3.2 cells, drug 0.1 μM",10
same,Per Cent Survival with 3.2 μM mitoxantrone,"S1-M1-3.2 cells [1]; S1-M1-3.2 cells, drug 0.5 μM",39 ± 10 Per Cent
same,Per Cent Survival Alone,"S1-M1-3.2 cells [1]; S1-M1-3.2 cells, drug 0.5 μM alone",105 ± 2 Per Cent
same,Difference Score,"S1-M1-3.2 cells [1]; S1-M1-3.2 cells, drug 0.5 μM",66
same,Per Cent Survival with 3.2 μM mitoxantrone,"S1-M1-3.2 cells [1]; S1-M1-3.2 cells, drug 1 μM",30 ± 1 Per Cent
same,Per Cent Survival Alone,"S1-M1-3.2 cells [1]; S1-M1-3.2 cells, drug 1 μM alone",103 ± 1 Per Cent
same,Difference Score,"S1-M1-3.2 cells [1]; S1-M1-3.2 cells, drug 1 μM",73
same,Per Cent Survival with 3.2 μM mitoxantrone,"S1-M1-3.2 cells [1]; S1-M1-3.2 cells, drug 5 μM",24 ± 4 Per Cent
same,Per Cent Survival Alone,"S1-M1-3.2 cells [1]; S1-M1-3.2 cells, drug 5 μM alone",99 ± 5 Per Cent
same,Difference Score,"S1-M1-3.2 cells [1]; S1-M1-3.2 cells, drug 5 μM",75
same,Per Cent Survival with 3.2 μM mitoxantrone,"S1-M1-3.2 cells [1]; S1-M1-3.2 cells, drug 10 μM",22 ± 6 Per Cent
same,Per Cent Survival Alone,"S1-M1-3.2 cells [1]; S1-M1-3.2 cells, drug 10 μM alone",99 ± 1 Per Cent
same,Difference Score,"S1-M1-3.2 cells [1]; S1-M1-3.2 cells, drug 10 μM",77
same,Per Cent Survival with 3.2 μM mitoxantrone,"S1-M1-3.2 cells [1]; S1-M1-3.2 cells, drug 20 μM",17 ± 10 Per Cent
same,Per Cent Survival Alone,"S1-M1-3.2 cells [1]; S1-M1-3.2 cells, drug 20 μM alone",104 ± 4 Per Cent
same,Difference Score,"S1-M1-3.2 cells [1]; S1-M1-3.2 cells, drug 20 μM",87
same,Per Cent Survival with 3.2 μM mitoxantrone,"S1-M1-3.2 cells [1]; S1-M1-3.2 cells, drug 40 μM",14 ± 11 Per Cent
same,Per Cent Survival Alone,"S1-M1-3.2 cells [1]; S1-M1-3.2 cells, drug 40 μM alone",108 ± 5 Per Cent
same,Difference Score,"S1-M1-3.2 cells [1]; S1-M1-3.2 cells, drug 40 μM",94
same,Per Cent Survival with 3.2 μM mitoxantrone,"S1-M1-3.2 cells [1]; S1-M1-3.2 cells, drug 80 μM",13 ± 11 Per Cent
same,Per Cent Survival Alone,"S1-M1-3.2 cells [1]; S1-M1-3.2 cells, drug 80 μM alone",94 ± 4 Per Cent
same,Difference Score,"S1-M1-3.2 cells [1]; S1-M1-3.2 cells, drug 80 μM",81
same,Toxicity (>20%),"S1-M1-3.2 cells [1]; compound alone, concentration that causes greater than 20% cell death of S1-M1-3.2 cells",>80.0 µM
same,Toxicity (>20%) (μM),"S1-M1-3.2 cells [1]; compound alone, concentration that causes greater than 20% cell death of S1-M1-3.2 cells, listed as FTC",greater than 80.0 μM
same,IC50,"S1-M1-3.2 cells [1]; read-out: IC50 (μM), resensitizing S1-M1-3.2 cells to mitoxantrone, with 3.2 μM mitoxantrone, 50% cancer cell death, listed as FTC",0.35 µM and 0.3 µM
same,Dose modifying factor (5 μM FTC),MCF-7/BCRP cells; with Doxorubicin,6.6
same,Dose modifying factor (5 μM FTC),MCF-7/BCRP cells; with Mitoxantrone,29.4
same,Dose modifying factor (5 μM FTC),MCF-7/BCRP cells; with Paclitaxel,1.1
same,Dose modifying factor (5 μM FTC),MCF-7/BCRP cells; with Topotecan,6.5
same,Per Cent Survival with 21 μM bisantrene,S1-B1-20 cells; drug 0.1 μM,101 ± 1 Per Cent
same,Per Cent Survival Alone,S1-B1-20 cells; drug 0.1 μM alone,99 ± 1 Per Cent
same,Difference Score,S1-B1-20 cells; drug 0.1 μM,−4
same,Per Cent Survival with 21 μM bisantrene,S1-B1-20 cells; drug 0.5 μM,103 ± 1 Per Cent
same,Per Cent Survival Alone,S1-B1-20 cells; drug 0.5 μM alone,99 ± 1 Per Cent
same,Difference Score,S1-B1-20 cells; drug 0.5 μM,−4
same,Per Cent Survival with 21 μM bisantrene,S1-B1-20 cells; drug 1 μM,100 ± 0 Per Cent
same,Per Cent Survival Alone,S1-B1-20 cells; drug 1 μM alone,98 ± 3 Per Cent
same,Difference Score,S1-B1-20 cells; drug 1 μM,−2
same,Per Cent Survival with 21 μM bisantrene,S1-B1-20 cells; drug 5 μM,103 ± 2 Per Cent
same,Per Cent Survival Alone,S1-B1-20 cells; drug 5 μM alone,101 ± 3 Per Cent
same,Difference Score,S1-B1-20 cells; drug 5 μM,−2
same,Per Cent Survival with 21 μM bisantrene,S1-B1-20 cells; drug 10 μM,93 ± 1 Per Cent
same,Per Cent Survival Alone,S1-B1-20 cells; drug 10 μM alone,88 ± 0 Per Cent
same,Difference Score,S1-B1-20 cells; drug 10 μM,−4
same,Per Cent Survival with 21 μM bisantrene,S1-B1-20 cells; drug 20 μM,89 ± 1 Per Cent
same,Per Cent Survival Alone,S1-B1-20 cells; drug 20 μM alone,85 ± 0 Per Cent
same,Difference Score,S1-B1-20 cells; drug 20 μM,−4
same,Per Cent Survival with 21 μM bisantrene,S1-B1-20 cells; drug 40 μM,77 ± 2 Per Cent
same,Per Cent Survival Alone,S1-B1-20 cells; drug 40 μM alone,83 ± 1 Per Cent
same,Difference Score,S1-B1-20 cells; drug 40 μM,13
same,Per Cent Survival with 21 μM bisantrene,S1-B1-20 cells; drug 80 μM,53 ± 5 Per Cent
same,Per Cent Survival Alone,S1-B1-20 cells; drug 80 μM alone,35 ± 1 Per Cent
same,Difference Score,S1-B1-20 cells; drug 80 μM,−18
same,reversal of resistance in P-gp positive S1-B1-20 cells (in words),S1-B1-20 cells; bisantrene-selected,did not reverse resistance
same,Dose modifying factor,HL-60 cells; 5 μM FTC with Doxorubicin,2.1
same,Dose modifying factor,HL-60 cells; 5 μM FTC with Mitoxantrone,1.3
same,Dose modifying factor,HL-60 cells; 5 μM FTC with Paclitaxel,1.0
same,"reversal activity of FTC (fold), range over drugs",HL-60 cells; parental line HL-60,1.0-2.1 fold
same,Dose modifying factor,"S1-M1-3.2 cells [2]; 5 μM FTC with Doxorubicin, listed as FTC",26 and 25.9
same,Dose modifying factor,S1-M1-3.2 cells [2]; 5 μM FTC with Mitoxantrone,93
same,Dose modifying factor,S1-M1-3.2 cells [2]; 5 μM FTC with Paclitaxel,1.1
same,Dose modifying factor,S1-M1-3.2 cells [2]; 5 μM FTC with Topotecan,24
same,Dose modifying factor,S1 cells; 5 μM FTC with Doxorubicin,1
same,Dose modifying factor,S1 cells; 5 μM FTC with Mitoxantrone,1
same,Dose modifying factor,S1 cells; 5 μM FTC with Paclitaxel,1.4
same,Dose modifying factor,S1 cells; 5 μM FTC with Topotecan,0.9
same,Dose modifying factor,"MCF-7 cells; MCF 7 (row above MCF 7/AdVp), 5 μM FTC with Doxorubicin",2.0
same,Dose modifying factor,"MCF-7 cells; MCF 7 (row above MCF 7/AdVp), 5 μM FTC with Mitoxantrone",7.5
same,Dose modifying factor,"MCF-7 cells; MCF 7 (row above MCF 7/AdVp), 5 μM FTC with Paclitaxel",1.0
same,Dose modifying factor,"MCF-7 cells; MCF 7 (row above MCF 7/mtxR), 5 μM FTC with Doxorubicin",1.0
same,Dose modifying factor,"MCF-7 cells; MCF 7 (row above MCF 7/mtxR), 5 μM FTC with Mitoxantrone",1.7
same,Dose modifying factor,"MCF-7 cells; MCF 7 (row above MCF 7/mtxR), 5 μM FTC with Paclitaxel",0.8
same,Dose modifying factor (5 μM FTC),MCF-7 cells; with Doxorubicin,1.0
same,Dose modifying factor (5 μM FTC),MCF-7 cells; with Mitoxantrone,2.5
same,Dose modifying factor (5 μM FTC),MCF-7 cells; with Paclitaxel,0.7
same,Dose modifying factor (5 μM FTC),MCF-7 cells; with Topotecan,5.6
same,"Reversal by FTC (fold), range over drugs",MCF-7 cells; parental unselected MCF-7 cells,0.8-1.7 fold
same,"reversal by FTC (fold), mitoxantrone and topotecan","MCF-7 cells; untransfected MCF-7 cells, 5 μM FTC",2.5-5.6 fold
same,"reversal activity of FTC (fold), range over drugs",HL-60/AR cells; HL60/AR,2.6-3.3 fold
same,Dose modifying factor,HL-60/AR cells; 5 μM FTC with Doxorubicin,2.8 (92.3)
same,Dose modifying factor,HL-60/AR cells; 5 μM FTC with Mitoxantrone,3.3 (53)
same,Dose modifying factor,HL-60/AR cells; 5 μM FTC with Paclitaxel,2.6 (5.1)
same,reversal of resistance in MRP-positive HL60/AR cells (in words),HL-60/AR cells; doxorubicin-selected,did not reverse resistance
same,Dose modifying factor,MCF 7/AdVp cells,0.7 (10.7)
same,sensitization to mitoxantrone (in words),A549,can be sensitized to mitoxantrone
